target: T1, Recombinant human cathepsin A (Homo sapiens, UniProt P10619); experiment: Cathepsin A inhibitory activity; assay type: biochemical; conditions: pharmacological test "Cathepsin A inhibitory activity"; IC50 given as class A/B/C; read-out: Activity (2): Cathepsin A inhibitory activity, IC50 class
T1 construct: Recombinant human cathepsin A (residues 29-480, with a C-terminal 10-His tag); 10-His (C); purchased R&D Systems 1049-SE
T1 sequence (P10619 29-312 limits assumed): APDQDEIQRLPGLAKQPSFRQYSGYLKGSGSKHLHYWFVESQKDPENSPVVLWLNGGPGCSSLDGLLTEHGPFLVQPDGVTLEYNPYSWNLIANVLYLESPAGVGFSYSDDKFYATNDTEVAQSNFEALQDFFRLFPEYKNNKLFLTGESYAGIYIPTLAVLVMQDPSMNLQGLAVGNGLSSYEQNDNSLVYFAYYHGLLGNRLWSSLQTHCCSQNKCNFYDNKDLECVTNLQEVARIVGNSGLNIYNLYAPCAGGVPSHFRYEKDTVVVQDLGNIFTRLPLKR
T1 sequence (P10619 327-480 limits assumed): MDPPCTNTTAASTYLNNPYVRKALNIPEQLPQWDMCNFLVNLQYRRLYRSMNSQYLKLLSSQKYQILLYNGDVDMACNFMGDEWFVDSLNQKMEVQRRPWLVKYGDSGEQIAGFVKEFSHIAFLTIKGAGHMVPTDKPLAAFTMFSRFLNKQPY
In short: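 Read-out was microfluidic separation of cleaved vs. uncleaved Bodipy FL-bradykinin (2 μM), giving turnover, % inhibition and IC50. Compound and 833 ng/ml enzyme met for 15 min RT in pH 5.5 MES/DTT before substrate (15 min RT). The 29-480 His-tagged human enzyme was first activated by cathepsin L, then E-64 (10 μM).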

| Structure (SMILES) | IC50 [nM] |
| --- | --- |
| O=C(O)CC(NC(=O)c1cc(O)n(-c2cccc(Cl)c2)n1)c1cccc(C(F)(F)F)c1Cl (stereo not drawn) [Example 263] | 100 to 1000 |
| N#Cc1cccc([C@H](CC(=O)O)NC(=O)c2cc(O)n(-c3ccccc3)n2)c1 [Example 160] | 1000 to 30000 |

Other lines, results leading:

| IC50 [nM] | Structure (SMILES) |
| --- | --- |
| 100 to 1000 | O=C(O)C[C@H](NC(=O)c1cc(O)n(-c2ccccc2)n1)c1ccccc1Br [Example 159] |
| 100 to 1000 | O=C(O)CC(NC(=O)c1cc(O)n(-c2ccccc2F)n1)c1ccc(OC(F)(F)F)cc1 (stereo not drawn) [Example 239] |
| 100 to 1000 | O=C(O)C[C@H](NC(=O)c1cc(O)n(-c2ccccc2F)n1)c1cccc(C(F)(F)F)c1 [Example 241] |
| 1000 to 30000 | COc1ccc(Cl)cc1C(CC(=O)O)NC(=O)c1cc(O)n(-c2ccc(F)cc2F)n1 (stereo not drawn) [Example 178] |
| 100 to 1000 | O=C(O)CC(NC(=O)c1cc(O)n(-c2ccccc2Cl)n1)c1ccccc1F (stereo not drawn) [Example 208] |
| 100 to 1000 | COc1ccc(C(CC(=O)O)NC(=O)c2cc(O)n(-c3cccc(Cl)c3)n2)c(C)c1 (stereo not drawn) [Example 250] |
| 100 to 1000 | Cc1ccc(C(CC(=O)O)NC(=O)c2cc(O)n(-c3ccccc3Cl)n2)c(C)c1 (stereo not drawn) [Example 225] |

same assay, conditions: read-out: Activity (2): Cathepsin A inhibitory activity (IC50 class)

| Structure (SMILES) | IC50 [nM] |
| --- | --- |
| COc1ccccc1[C@H](CC(=O)O)NC(=O)c1cc(OC[C@@](C)(O)C(C)C)n(-c2ccccc2F)n1 [Example 783, (S)-3-{[1-(2-Fluoro-phenyl)-5-((S)-2-hydroxy-2,3-dimethyl-butoxy)-1H-pyrazole-3-carbonyl]-amino}-3-(2-methoxy-phenyl)-propionic acid] | < 100 |
| Cc1ccccc1[C@H](CC(=O)O)NC(=O)c1cc(OC(=O)N(C)C)n(-c2ccccc2F)n1 [Example 614] | < 100 |
| CC(C)(C)[C@@](C)(O)COc1cc(C(=O)N[C@@H](CC(=O)O)c2ccc(F)cc2)nn1-c1ccccc1F [Example 771, (S)-3-(4-Fluoro-phenyl)-3-{[1-(2-fluoro-phenyl)-5-((R)-2-hydroxy-2,3,3-trimethyl-butoxy)-1H-pyrazole-3-carbonyl]-amino}-propionic acid] | < 100 |
| O=C(O)CC(NC(=O)c1cc(O)n(-c2ccccc2)n1)c1ccc(-c2ccccc2Cl)cc1 (stereo not drawn) [Example 539] | 100 to 1000 |
| Cc1ccccc1[C@H](CC(=O)O)NC(=O)c1cc(OCC(O)C(C)(C)C)n(-c2ccccc2F)n1 (stereo partly drawn) [Example 744, (S)-3-{[1-(2-Fluoro-phenyl)-5-(2-hydroxy-3,3-dimethyl-butoxy)-1H-pyrazole-3-carbonyl]-amino}-3-o-tolyl-propionic acid] | < 100 |

Results, then the molecule that gave them:

| IC50 [nM] | Structure (SMILES) |
| --- | --- |
| 100 to 1000 | CCOc1cc(C(=O)N[C@@H](CC(=O)O)c2ccccc2C(F)(F)F)nn1-c1ccccc1Cl [Example 741] |
| < 100 | COc1cc(C(=O)N[C@@H](CC(=O)O)c2ccc(Cl)cc2Cl)nn1-c1ccccc1F [Example 673] |
| < 100 | CCOc1cc(C(=O)NC(CC(=O)O)c2ccc(OC)cc2C)nn1-c1ccccc1F (stereo not drawn) [Example 714] |
| 1000 to 30000 | COc1c(C)c(C(=O)NC(CC(=O)O)c2ccccc2C)nn1-c1ccccc1F (stereo not drawn) [Example 605] |
| 100 to 1000 | CCOc1cc(C(=O)N[C@@H](CC(=O)O)c2ccccc2OC)nn1-c1ccccc1F [Example 709] |
| < 100 | Cc1nc(COc2cc(C(=O)N[C@@H](CC(=O)O)c3ccccc3C)nn2-c2ccccc2F)cs1 [Example 646] |
| < 100 | Cc1ccccc1[C@H](CC(=O)O)NC(=O)c1cc(OCc2ccccc2)n(-c2ccccc2F)n1 [Example 651] |
| 100 to 1000 | CCOc1cc(C(=O)N[C@@H](CC(=O)O)c2ccc(C(F)(F)F)cc2)nn1-c1ccccc1Cl [Example 735] |

same assay, conditions: read-out: Activity (2): Cathepsin A inhibitory activity, IC50 class

| Structure (SMILES) | IC50 [nM] |
| --- | --- |
| CC(C)(C)C(O)COc1cc(C(=O)N[C@H](CC(=O)O)c2ccc(Cl)cc2)nn1-c1ccccc1F (stereo partly drawn) [Example 815, (R)-3-(4-Chloro-phenyl)-3-{[1-(2-fluoro-phenyl)-5-(2-hydroxy-3,3-dimethyl-butoxy)-1H-pyrazole-3-carbonyl]-amino}-propionic acid] | < 100 |
| O=C(O)CC(NC(=O)c1cc(O)n(-c2ccc(F)c(Cl)c2)n1)c1ccc(F)cc1 (stereo not drawn) [Example 72] | 1000 to 30000 |
| COc1ccc(C(CC(=O)O)NC(=O)c2cc(O)n(-c3cc(C)ccc3C)n2)cc1OC (stereo not drawn) [Example 30] | 1000 to 30000 |
| O=C(O)C[C@H](NC(=O)c1cc(O)n(-c2ccc(Cl)cc2)n1)c1ccc(Cl)cc1 [Example 296] | 100 to 1000 |
| O=C(O)CC(NC(=O)c1cc(O)n(-c2ccccc2)n1)c1cccc(C(F)(F)F)c1 (stereo not drawn) [Example 67] | 100 to 1000 |
| CC(C)[C@@](C)(O)COc1cc(C(=O)NC2(CC(=O)O)CCCC2)nn1-c1ccccc1F [Example 824, (1-{[1-(2-Fluoro-phenyl)-5-((R)-2-hydroxy-2,3-dimethyl-butoxy)-1H-pyrazole-3-carbonyl]-amino}-cyclopentyl)-acetic acid] | 100 to 1000 |
| O=C(O)CC(NC(=O)c1cc(O)n(-c2cccc(F)c2)n1)c1cccc(Cl)c1Cl (stereo not drawn) [Example 314] | < 100 |
| CC(C)[C@](C)(O)COc1cc(C(=O)N[C@@H](CC(=O)O)c2ccc(F)cc2)nn1-c1ccccc1F [Example 872, (S)-3-(4-Fluoro-phenyl)-3-{[1-(2-fluoro-phenyl)-5-((S)-2-hydroxy-2,3-dimethyl-butoxy)-1H-pyrazole-3-carbonyl]-amino}-propionic acid] | 100 to 1000 |
| Cc1cccc([C@H](CC(=O)O)NC(=O)c2cc(O)n(-c3ccc(F)cc3)n2)c1 [Example 354] | 100 to 1000 |
| O=C(O)CC(NC(=O)c1cc(O)n(-c2ccc(F)cc2)n1)c1cccc(C(F)(F)F)c1Cl (stereo not drawn) [Example 362] | 100 to 1000 |

Next, values leading:

| IC50 [nM] | Structure (SMILES) |
| --- | --- |
| 100 to 1000 | Cc1ccccc1[C@H](CC(=O)O)NC(=O)c1cc(O)n(-c2cccc(Cl)c2)n1 [Example 75] |
| 1000 to 30000 | COc1ccc(C(CC(=O)O)NC(=O)c2cc(O)n(-c3ccc(Cl)cc3)n2)c(OC)c1 (stereo not drawn) [Example 273] |
| 100 to 1000 | Cc1ccc([C@H](CC(=O)O)NC(=O)c2cc(O)n(-c3ccccc3Cl)n2)cc1 [Example 135, (S)-3-{[1-(2-Chloro-phenyl)-5-hydroxy-1H-pyrazole-3-carbonyl]-amino}-3-p-tolyl-propionic acid] |
| 100 to 1000 | COc1ccc(C(CC(=O)O)NC(=O)c2cc(O)n(-c3ccccc3)n2)c(C)c1 (stereo not drawn) [Example 373] |
| 100 to 1000 | O=C(O)C[C@H](NC(=O)c1cc(O)n(-c2ccccc2F)n1)c1ccc(C(F)(F)F)cc1 [Example 121] |
| 1000 to 30000 | COc1ccc(C(CC(=O)O)NC(=O)c2cc(O)n(-c3cc(C)ccc3C)n2)cc1F (stereo not drawn) [Example 54] |
| < 100 | Cc1ccccc1[C@H](CC(=O)O)NC(=O)c1cc(OCC(C)(O)c2ccccc2)n(-c2ccccc2F)n1 (stereo partly drawn) [Example 891, (S)-3-{[1-(2-Fluoro-phenyl)-5-(2-hydroxy-2-phenyl-propoxy)-1H-pyrazole-3-carbonyl]-amino}-3-o-tolyl-propionic acid] |
| 100 to 1000 | O=C(O)CC(NC(=O)c1cc(O)n(-c2ccccc2)n1)c1ccc(Cl)cc1 (stereo not drawn) [Example 58] |
| 100 to 1000 | Cc1ccccc1C(CC(=O)O)NC(=O)c1cc(O)n(-c2ccc(Cl)cc2)n1 (stereo not drawn) [Example 79] |
| 100 to 1000 | O=C(O)C[C@H](NC(=O)c1cc(O)n(-c2ccccc2Cl)n1)c1cccc(F)c1 [Example 393] |
| 100 to 1000 | CCc1ccc(C(CC(=O)O)NC(=O)c2cc(O)n(-c3ccccc3)n2)cc1 (stereo not drawn) [Example 22] |

same assay, conditions: recombinant human cathepsin A 833 ng/ml, Bodipy FL-labeled bradykinin 2 μM, pH 5.5; read-out: CATH-A IC50

| Structure (SMILES) | IC50 [nM] |
| --- | --- |
| CC(C)(C)[C@@](C)(O)COc1cc(C(=O)N[C@@H](CC(=O)O)c2ccc(F)cc2)nn1-c1ccccc1F [Example 771, (S)-3-(4-Fluoro-phenyl)-3-{[1-(2-fluoro-phenyl)-5-((R)-2-hydroxy-2,3,3-trimethyl-butoxy)-1H-pyrazole-3-carbonyl]-amino}-propionic acid] | 1.97 |
| O=C(O)CC(NC(=O)c1cc(O)n(-c2ccccc2)n1)c1ccc(-c2ccccn2)cc1 (stereo not drawn) [Example 499, 3-[(5-Hydroxy-1-phenyl-1H-pyrazole-3-carbonyl)-amino]-3-(4-pyridin-2-yl-phenyl)-propionic acid; compound with trifluoro-acetic acid] | 147 |

Continued, values first:

| IC50 [nM] | Structure (SMILES) |
| --- | --- |
| 249 | COc1ccc(F)cc1C(CC(=O)O)NC(=O)c1cc(O)n(-c2ccc(F)cc2F)n1 (stereo not drawn) [Example 453, 3-{[1-(2,4-Difluoro-phenyl)-5-hydroxy-1H-pyrazole-3-carbonyl]-amino}-3-(5-fluoro-2-methoxy-phenyl)-propionic acid] |
| 211 | Cc1ccc([C@H](CC(=O)O)NC(=O)c2cc(O)n(-c3ccccc3Cl)n2)cc1 [Example 135, (S)-3-{[1-(2-Chloro-phenyl)-5-hydroxy-1H-pyrazole-3-carbonyl]-amino}-3-p-tolyl-propionic acid] |

same assay, conditions: recombinant human cathepsin A; read-out: Activity (2): Cathepsin A inhibitory activity, IC50 class

| Structure (SMILES) | IC50 [nM] |
| --- | --- |
| O=C(O)C[C@H](NC(=O)c1cc(O)n(-c2cccc(F)c2)n1)c1c(F)cccc1F [Example 434] | 100 to 1000 |
| O=C(O)CC(NC(=O)c1cc(O)n(-c2cccnc2)n1)c1ccc(-c2ccccc2)cc1 (stereo not drawn) [Example 440] | 1000 to 30000 |
| O=C(O)C[C@H](NC(=O)c1cc(O)n(-c2cccc(F)c2)n1)c1cccc(Cl)c1 [Example 430] | 100 to 1000 |
| Cc1ccc(C(CC(=O)O)NC(=O)c2cc(O)n(-c3cccc(Cl)c3)n2)c(C)c1 (stereo not drawn) [Example 419] | 100 to 1000 |
| O=C(O)CC(NC(=O)c1cc(O)n(-c2ccccc2)n1)c1ccc(-c2ccccn2)cc1 (stereo not drawn) [Example 499, 3-[(5-Hydroxy-1-phenyl-1H-pyrazole-3-carbonyl)-amino]-3-(4-pyridin-2-yl-phenyl)-propionic acid; compound with trifluoro-acetic acid] | 100 to 1000 |
| O=C(O)CC(NC(=O)c1cc(O)n(-c2ccc(F)cc2)n1)c1ccc(Oc2ccccc2)cc1 (stereo not drawn) [Example 437] | 100 to 1000 |

Second part, the molecule after the results:

| IC50 [nM] | Structure (SMILES) |
| --- | --- |
| 100 to 1000 | COc1ccc(F)cc1C(CC(=O)O)NC(=O)c1cc(O)n(-c2ccc(F)cc2F)n1 (stereo not drawn) [Example 453, 3-{[1-(2,4-Difluoro-phenyl)-5-hydroxy-1H-pyrazole-3-carbonyl]-amino}-3-(5-fluoro-2-methoxy-phenyl)-propionic acid] |
| 100 to 1000 | Cc1ccc(F)cc1C(CC(=O)O)NC(=O)c1cc(O)n(-c2cccc(F)c2)n1 (stereo not drawn) [Example 487] |
| 100 to 1000 | COc1cccc([C@H](CC(=O)O)NC(=O)c2cc(O)n(-c3cccc(F)c3)n2)c1 [Example 429] |
| 1000 to 30000 | COc1ccccc1[C@@H](NC(=O)c1cc(O)n(-c2cccc(Cl)c2)n1)[C@@H](O)C(=O)O [Example 416] |

From US8664257B2, “Oxygen-substituted 3-heteroaroylamino-propionic acid derivatives and their use as pharmaceuticals” (Sanofi, priority 2010, dated 2014)
